Experimental data reported in patent US10753947B2, “Methods for screening voltage-gated proteins” (D.E. Shaw Research, LLC, priority 2012, dated 2020).
Like-named read-outs stand apart in the source and are kept apart here.

Experiments:
[1] = target: KCa3.1 (Homo sapiens, UniProt O15554); conditions: Table 4; cited from earlier work
[2] = system: Nav; conditions: Table 4; read-out: IC50 Others: Nav; cited from earlier work
[3] = target: Kv1.3 (Homo sapiens, UniProt P22001); conditions: cited from earlier work
Kv1.3, sequence (P22001 whole entry): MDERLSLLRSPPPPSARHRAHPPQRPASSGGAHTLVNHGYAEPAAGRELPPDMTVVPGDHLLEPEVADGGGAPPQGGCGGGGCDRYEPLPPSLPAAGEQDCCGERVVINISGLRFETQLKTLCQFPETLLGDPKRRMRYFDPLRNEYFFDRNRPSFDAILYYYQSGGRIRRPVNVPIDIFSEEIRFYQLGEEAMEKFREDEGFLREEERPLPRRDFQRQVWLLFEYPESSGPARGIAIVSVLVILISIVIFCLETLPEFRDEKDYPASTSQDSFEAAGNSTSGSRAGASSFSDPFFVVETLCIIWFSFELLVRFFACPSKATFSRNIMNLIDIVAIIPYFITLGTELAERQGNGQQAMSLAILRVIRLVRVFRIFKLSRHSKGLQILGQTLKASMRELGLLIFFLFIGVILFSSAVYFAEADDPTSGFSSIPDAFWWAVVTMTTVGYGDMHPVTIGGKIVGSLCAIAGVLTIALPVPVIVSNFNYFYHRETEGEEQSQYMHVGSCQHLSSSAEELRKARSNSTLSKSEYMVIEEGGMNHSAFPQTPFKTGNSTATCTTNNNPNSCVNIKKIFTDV

[4] = target: Kv1.2 (Homo sapiens, UniProt P16389); conditions: Table 4; read-out: IC50 Kv1.2; cited from earlier work
Kv1.2, sequence (P16389 whole entry): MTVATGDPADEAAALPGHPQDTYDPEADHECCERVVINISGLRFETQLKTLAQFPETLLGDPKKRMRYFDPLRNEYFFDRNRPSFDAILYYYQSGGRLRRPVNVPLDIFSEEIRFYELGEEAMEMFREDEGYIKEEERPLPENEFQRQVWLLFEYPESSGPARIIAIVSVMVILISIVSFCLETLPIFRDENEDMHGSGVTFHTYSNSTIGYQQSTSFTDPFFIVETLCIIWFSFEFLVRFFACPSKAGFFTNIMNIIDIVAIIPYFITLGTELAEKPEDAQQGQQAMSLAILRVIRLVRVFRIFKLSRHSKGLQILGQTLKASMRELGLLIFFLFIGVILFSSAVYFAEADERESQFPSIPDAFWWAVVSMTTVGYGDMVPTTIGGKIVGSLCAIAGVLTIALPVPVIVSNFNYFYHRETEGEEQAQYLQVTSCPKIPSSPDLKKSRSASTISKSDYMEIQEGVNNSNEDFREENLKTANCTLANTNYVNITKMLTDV

[5] = target: Kv1.1 (Homo sapiens, UniProt Q09470); conditions: Table 4; read-out: IC50 Kv1.1; cited from earlier work
Kv1.1, sequence (Q09470 whole entry): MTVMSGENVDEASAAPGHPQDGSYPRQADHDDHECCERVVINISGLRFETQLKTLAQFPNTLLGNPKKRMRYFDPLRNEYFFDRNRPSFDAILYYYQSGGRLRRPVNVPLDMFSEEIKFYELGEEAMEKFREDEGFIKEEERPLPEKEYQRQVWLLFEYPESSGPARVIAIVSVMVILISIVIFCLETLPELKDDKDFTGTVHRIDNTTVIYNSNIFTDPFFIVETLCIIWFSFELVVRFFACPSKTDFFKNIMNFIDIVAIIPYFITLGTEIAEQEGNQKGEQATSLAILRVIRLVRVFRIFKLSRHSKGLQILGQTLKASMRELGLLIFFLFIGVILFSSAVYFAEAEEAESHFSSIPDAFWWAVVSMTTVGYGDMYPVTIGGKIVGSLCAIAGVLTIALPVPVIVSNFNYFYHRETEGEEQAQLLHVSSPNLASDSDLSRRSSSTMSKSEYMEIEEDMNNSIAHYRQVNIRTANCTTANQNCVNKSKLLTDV

[6] = target: Kv1.5 (Homo sapiens, UniProt P22460); conditions: Table 4; cited from earlier work
Kv1.5, sequence (P22460 whole entry): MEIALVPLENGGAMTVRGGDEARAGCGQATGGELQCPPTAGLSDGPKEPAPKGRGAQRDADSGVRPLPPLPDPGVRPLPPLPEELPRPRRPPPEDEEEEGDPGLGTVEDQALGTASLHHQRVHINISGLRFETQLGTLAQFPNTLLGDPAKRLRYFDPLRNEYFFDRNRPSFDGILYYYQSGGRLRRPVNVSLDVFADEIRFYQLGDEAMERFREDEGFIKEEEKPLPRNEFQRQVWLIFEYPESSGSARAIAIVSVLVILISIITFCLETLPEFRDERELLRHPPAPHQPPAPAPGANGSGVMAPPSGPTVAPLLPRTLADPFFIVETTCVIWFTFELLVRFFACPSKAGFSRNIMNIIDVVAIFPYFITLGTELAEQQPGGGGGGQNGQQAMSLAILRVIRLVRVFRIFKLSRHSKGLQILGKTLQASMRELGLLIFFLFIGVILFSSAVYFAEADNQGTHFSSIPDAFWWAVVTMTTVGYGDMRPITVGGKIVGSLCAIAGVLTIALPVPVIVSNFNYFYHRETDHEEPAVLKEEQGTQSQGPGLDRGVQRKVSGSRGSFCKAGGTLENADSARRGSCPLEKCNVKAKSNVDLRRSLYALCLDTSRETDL

[7] = target: T1, Shaker R362S with alpha pore open (R1S) (Drosophila melanogaster, UniProt P08510, DUP563-563/L584V/Q583H/R362S); experiment: Omega currents (Iω) of Shaker R1S in Xenopus oocytes, two electrode voltage-clamp; assay type: cell-based; conditions: 30, 100 and 300 μM La3+; test pulses +60 mV to -300 mV, holding -50 mV
T1 construct: expressed in transfected cells; host or cells: Xenopus oocytes injected with cRNA (vector pBSTA)
T1 sequence (P08510 with tags, fused parts or gaps R362S/DUP563-563/Q583H/L584V): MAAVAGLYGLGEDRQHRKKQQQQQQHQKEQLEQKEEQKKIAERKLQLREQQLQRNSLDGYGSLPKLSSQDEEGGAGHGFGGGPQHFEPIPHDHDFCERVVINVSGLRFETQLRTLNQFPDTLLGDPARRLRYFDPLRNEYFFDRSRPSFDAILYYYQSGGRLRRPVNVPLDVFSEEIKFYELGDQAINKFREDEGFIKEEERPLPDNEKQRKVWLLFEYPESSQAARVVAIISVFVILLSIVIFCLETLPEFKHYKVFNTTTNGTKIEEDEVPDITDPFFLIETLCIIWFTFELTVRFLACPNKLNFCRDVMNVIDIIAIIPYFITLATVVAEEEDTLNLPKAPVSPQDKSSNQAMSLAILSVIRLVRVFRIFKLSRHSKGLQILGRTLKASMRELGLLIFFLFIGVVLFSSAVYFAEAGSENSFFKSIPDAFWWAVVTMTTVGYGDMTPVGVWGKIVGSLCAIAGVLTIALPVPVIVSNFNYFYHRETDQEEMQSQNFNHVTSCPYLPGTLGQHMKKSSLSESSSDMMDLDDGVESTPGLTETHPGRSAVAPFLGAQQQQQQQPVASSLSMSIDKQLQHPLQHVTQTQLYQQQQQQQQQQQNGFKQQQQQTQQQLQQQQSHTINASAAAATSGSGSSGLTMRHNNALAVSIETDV
Description: (§1) The coding cDNAs of Shaker “wild-type” (hereinafter WT) base construct (Shaker H4, with intact inactivation), Shaker R362S with alpha pore open (hereinafter R1S) and Shaker with the alpha pore closed by mutation W434F (herein after R1S/W434F) were cloned into a high expression vector pBSTA. The C-terminus of all constructs was tagged with eGFP. Transcripted cRNA was produced using the mMessage mMachine kit (Ambion Inc.).
(§2) Two to four days past injection of cRNA into stage V-VI Xenopus oocytes (NASCO), omega currents (Iω) and currents through the alpha pore (Iα) were recorded with the two electrode voltage-clamp technique making use of a TURBO TEC-05× amplifier (npi electronic GmbH). Currents were filtered at 10 kHz and sampled at 20 kHz. The bath solution contained (in mM): NaCl 96, KCl 2, CaCl2 1, MgCl2 1 and HEPES 5 (pH 7.5). Voltage-recording and current-injecting microelectrodes were filled with 3 M KCl and pulled to have resistances between 0.2 and 1 MΩ (see Stork et al., 2007). The pClamp software package v.10.1 (Molecular Devices, Inc.) was used for data acquisition and analysis.
(§3) Pulses (20 ms) from +60 to ˜300 mV were applied in 20 mV steps at 1 Hz from a holding potential of either −80 mV (WT, R1S/W434F) or ˜50 mV (R1S) (see FIG. 34B) to measure omega currents (Iω) without leak subtraction. […]

[8] = system: Kv2.1 R293S/R294S/R300S (R-1S/R0S/R2S); experiment: Omega currents (Iω) of Kv2.1 R-1S/R0S/R2S in Xenopus oocytes, two electrode voltage-clamp; assay type: cell-based, human
Description: The coding cDNAs of KV2.1 “wild-type” (hereinafter WT) base construct (hKv2.1-m7-c3 is human Kv2.1, residues 1-858, mutated to confer AgTx2 sensitivity and to remove extracellular cysteine residues) was synthesized (Entelchon GmbH) and cloned into the high expression vector pBSTA.
Mutations Kv2.1 R294N (hereinafter R0N), Kv2.1 R300S (hereinafter R2S), Kv2.1 R294C/R300S (hereinafter R0C/R2S), Kv2.1 R293S/R294S (hereinafter R-1S/R0S), Kv2.1 R293S/R294C (hereinafter R-1S/R0C), Kv2.1 R293S/R294S/R300S (hereinafter R-1S/R0S/R2S), Kv2.1 R293S/R294C/R300S (hereinafter R-1S/R0C/R2S) were introduced using the QuikChange® Lightning Site-Directed Mutagenesis Kit (Stratagene) with mutagenic primers according to the manufacturer's instructions. All constructs were checked by restriction site mapping and sequencing.
as §2, with “Transcripted cRNA was produced using the mMessage mMachine kit (Ambion Inc.). Two” for “Two”, “(NASCO) potassium” for “(NASCO), omega currents (Iω) and”
Recording of alpha currents (Iα): Pulses of 100 ms were applied from ˜60 to +60 mV in 10 mV steps at 1 Hz from a holding potential of ˜80 mV to the Kv2.1 channel constructs to measure alpha currents (Iα). Passive leak currents were subtracted online using a P/4 procedure: pClamp software generates a series of scaled-down replica sweeps of the main stimulus waveform. […] The cell's response to the subsweeps is used to calculate the degree of passive cellular current leak. This is then subtracted from acquired data on the associated input signal. Recording of omega currents (Iω): Pulses of 10 ms were applied from a holding potential of ˜80 to ˜300 mV in 20 mV steps at 0.3 Hz to the Kv2.1 channel constructs. Iω were recorded without leak subtraction.
AgTx2 (Sigma Aldrich) was reconstituted according to manufacturer's instructions with 10 mM Tris, pH 7.5, containing 100 mM sodium chloride, 0.1% bovine serum albumin, and 1 mM EDTA. LaCl3 was from Sigma Aldrich; MTSEA, MTSES and MTSET were from Biotium.
La^3+, AgTx2, MTSEA, MTSES and MTSET and were applied to Xenopus oocytes by means of a fast perfusion technique (ScreeningTool as described by Baburin et al., 2006). Origin software v.7.0 (OriginLab Corp.) was employed for data analysis. Inhibition of inward currents was defined as 1−Iω,drug/Iω,control, where Iω,drug is the current response in the presence of a given concentration of lanthanum (La^3+) and Iω, control is the control current through the omega pore. The concentration-inhibition curve was fitted using the Hill equation: Iω,drug/Iω,control=A+[…] where IC50 is the concentration at which Iω inhibition is half-maximal, C is the applied La^3+ concentration, A is the fraction of Iω current that blocked and nH is the Hill coefficient. Data are given as mean±SE (n=number of experiments).

[9] = target: T2, Shaker R1S/W434F (alpha pore closed) (Drosophila melanogaster, UniProt P08510, DUP563-563/L584V/Q583H/R362S/W434F); experiment: Omega currents (Iω) of Shaker R1S/W434F in Xenopus oocytes, two electrode voltage-clamp; assay type: cell-based; conditions: 100 μM La3+, steps from -80 mV to -200 mV, 20 ms pulses at 1 Hz
T2 construct: expressed in transfected cells; host or cells: Xenopus oocytes injected with cRNA (vector pBSTA)
T2 sequence (P08510 with tags, fused parts or gaps R362S/W434F/DUP563-563/Q583H/L584V): as the sequence (P08510 with tags, fused parts or gaps R362S/DUP563-563/Q583H/L584V) above, with W434F counted along it
Description: as §1, §2, §3

[10] = target: T3, Kv3.2 (Homo sapiens, UniProt Q96PR1); conditions: Table 4; read-out: IC50 Others: Kv3.2; cited from earlier work
T3 sequence (Q96PR1 1-638): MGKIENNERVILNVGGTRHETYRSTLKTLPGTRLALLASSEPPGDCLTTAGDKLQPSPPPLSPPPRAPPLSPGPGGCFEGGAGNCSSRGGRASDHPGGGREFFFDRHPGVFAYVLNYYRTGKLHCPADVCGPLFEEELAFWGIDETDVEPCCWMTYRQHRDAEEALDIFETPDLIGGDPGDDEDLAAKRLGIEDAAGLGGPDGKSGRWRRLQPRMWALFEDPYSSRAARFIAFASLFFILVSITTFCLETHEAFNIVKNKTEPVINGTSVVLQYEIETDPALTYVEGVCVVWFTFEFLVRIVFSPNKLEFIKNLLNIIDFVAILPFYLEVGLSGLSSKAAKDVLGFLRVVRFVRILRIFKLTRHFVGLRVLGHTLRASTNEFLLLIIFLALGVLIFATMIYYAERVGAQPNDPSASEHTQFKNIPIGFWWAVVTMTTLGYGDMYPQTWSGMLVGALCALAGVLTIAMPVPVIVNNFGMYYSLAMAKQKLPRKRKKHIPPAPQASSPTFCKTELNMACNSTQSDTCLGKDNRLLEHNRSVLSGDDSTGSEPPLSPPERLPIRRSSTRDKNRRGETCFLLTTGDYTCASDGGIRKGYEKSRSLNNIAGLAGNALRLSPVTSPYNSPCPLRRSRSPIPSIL

[11] = target: Kv1.4 (Homo sapiens, UniProt P22459); conditions: Table 4; read-out: IC50 Others: Kv1.4; cited from earlier work
Kv1.4, sequence (P22459 whole entry): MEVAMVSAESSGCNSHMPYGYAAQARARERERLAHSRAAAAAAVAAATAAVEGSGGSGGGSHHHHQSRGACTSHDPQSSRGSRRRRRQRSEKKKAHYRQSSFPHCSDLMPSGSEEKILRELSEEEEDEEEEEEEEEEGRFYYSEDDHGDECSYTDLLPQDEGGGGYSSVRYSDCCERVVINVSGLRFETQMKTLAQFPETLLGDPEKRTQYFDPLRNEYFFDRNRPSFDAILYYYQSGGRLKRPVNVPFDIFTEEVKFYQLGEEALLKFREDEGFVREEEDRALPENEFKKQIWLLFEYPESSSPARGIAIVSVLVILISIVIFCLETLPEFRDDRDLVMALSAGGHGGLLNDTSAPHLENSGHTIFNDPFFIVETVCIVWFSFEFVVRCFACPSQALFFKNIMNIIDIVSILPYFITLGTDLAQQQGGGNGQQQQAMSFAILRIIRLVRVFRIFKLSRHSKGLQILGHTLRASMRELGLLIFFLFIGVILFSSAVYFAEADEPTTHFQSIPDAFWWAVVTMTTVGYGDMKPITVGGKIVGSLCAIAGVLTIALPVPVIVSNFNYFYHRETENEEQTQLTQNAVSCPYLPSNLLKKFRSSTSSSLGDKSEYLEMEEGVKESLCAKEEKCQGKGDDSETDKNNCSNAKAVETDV

[12] = Table 2, modulating Kv1.3 ion conductance, read-out: IC50

KCa3.1, sequence (O15554 whole entry): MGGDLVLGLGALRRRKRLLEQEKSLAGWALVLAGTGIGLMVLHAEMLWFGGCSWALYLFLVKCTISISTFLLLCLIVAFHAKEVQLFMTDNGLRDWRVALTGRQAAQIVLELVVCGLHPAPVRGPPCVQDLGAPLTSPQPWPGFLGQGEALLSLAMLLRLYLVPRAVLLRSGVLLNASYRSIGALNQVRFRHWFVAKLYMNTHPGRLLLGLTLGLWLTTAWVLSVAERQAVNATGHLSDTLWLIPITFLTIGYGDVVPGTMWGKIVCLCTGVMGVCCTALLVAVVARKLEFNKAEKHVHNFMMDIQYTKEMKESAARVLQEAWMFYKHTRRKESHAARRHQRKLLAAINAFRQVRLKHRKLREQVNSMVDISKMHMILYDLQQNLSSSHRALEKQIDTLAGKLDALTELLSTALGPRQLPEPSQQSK

Compound	IC50 [1] [nM]	IC50 [2] [nM]	IC50 [3, 12] [nM]	IC50 ([3]; Table 4, read-out: IC50 Kv1.3) [nM]	IC50 [4] [nM]	IC50 [5] [nM]	IC50 [6] [nM]	Block of omega current (Iω) of R1S Shaker [7]	Block of inward currents at negative potentials (Iω) ([8]; 30 μM to 10 mM La3+)	Hill coefficient nH ([8]; inward currents after 5 ms at -300 mV, Hill fit)	Block of Iω during the first pulse [9] [%]	Block of omega currents at steady state ([9]; 5 oocytes) [%]	IC50 [10] [nM]	IC50 [11] [nM]
CCCCC/N=c1\ccn(Cc2ccccc2)c2ccccc12 [CP-339818]	> 500000	10	150	230	14000	62000	19000							
O.O.O.O.O.O.O.[Cl-].[Cl-].[Cl-].[La+3] [La3+, Lanthanum(III) chloride heptahydrate]								blocked in a concentration-dependent manner	blocked	0.8±0.1	31.8±3.6	51.5±5.9		
COc1ccc(CCCN2CCC(COC(c3ccccc3)c3ccccc3)CC2)cc1 [UK-78282]	> 30000		200		2900	22000	70						127000	300
